The values that follow come from patent publication US11572590B2, “Methods for evaluating tumor cell spheroids using 3D microfluidic cell culture device” (Dana-Farber Cancer Institute, Inc., priority 2017, dated 2023).

For data set [1], the system named is Jurkat T cell leukemia cells. Briefly: IL-2 secretion by Jurkat cells on anti-CD3 coated plates. The following applies: dose titration, 24 hours. Type of data set: cell-based. The protocol:
Freshly isolated human CD4+ and CD8+ T cells were obtained from AllCells (Alameda, Calif., USA). Cells were spun down and resuspended in serum free Xvivo15 media (Lonza Walkersville, Inc., Chicago, Ill., USA) supplemented with 5 ng/mL […] and incubated overnight at 37° C. Cells were plated on anti-CD3 coated plates (5 μg/mL OKT3, eBioscience, Dallas, Tex., USA, overnight) with 2 μg/mL anti-CD28 (eBioscience, Dallas, Tex., USA). Cells are treated in replicate plates with a dose-titration of Compound 1 for 24 hours for IL-2 and 96 hours for IFNγ. IL-2 and IFNγ in the supernatant were measured using single- or multi-plex immunoassay (Mesoscale Discovery, Rockville, Md., USA). Jurkat T cell leukemia cells (clone E61 obtained from ATCC) plated on anti-CD3 coated plates were treated with a dose titration of Compound 1 for 24 hours. IL-2 in the supernatant was measured as described above.

For data set [2], the system named is CT26 spheroids lacking immune cells. Nature of the data set: Viability of CT26 spheroids lacking immune cells. It counts as cell-based. On the procedure:
Fresh tumor specimens (murine and human patients) were received in media (DMEM) on ice and minced in a 10 cm dish (on ice) using sterile forceps and scalpel. Minced tumor was resuspended in DMEM ([…], […] sodium pyruvate, 1:100 penicillin-streptomycin) (Corning CellGro, Manassas, Va.) +10% FBS (Gemini Bio-Products, West Sacramento, Calif.), 100 U/mL collagenase type IV (Life Technologies, Carlsbad, Calif.), and 15 mM HEPES (Life Technologies, Carlsbad, Calif.), except for CT26 tumors that were prepared in RPMI. Samples were pelleted and resuspended in 10-20 mL media. Red blood cells were removed from visibly bloody samples using RBC Lysis Buffer (Boston Bio-Products, Ashland, Mass.). […]
Dual labeling was performed by loading microfluidic device with Nexcelom ViaStain™ AO/PI Staining Solution (Nexcelom, CS2-0106). Following incubation with the dyes (20 minutes at room temperature in the dark), images were captured on a Nikon Eclipse 80i fluorescence microscope equipped with Z-stack (Prior) and CoolSNAP CCD camera (Roper Scientific). […] Live and dead cell quantitation was performed by measuring total cell area of each dye. […]

For a further data set, the system named is CT26 allograft. Nature of the data set: CT26 allograft, Compound 1 and anti-PD-L1 combination in vivo. More on the design: species or system mouse. Conditions: Compound 1 40 mg/kg oral gavage daily + anti-PD-L1 10 mg/kg every 5 days. On the procedure:
Combination studies were performed by vivoPharm (Hummelstown, Pa., USA). All procedures used in the performance of these studies were carried out in accordance with vivoPharm's Standard Operating Procedures, with particular reference to US_SOPvP_EF0314 “General Procedures for Efficacy Studies.” CT26 colon carcinoma cells (1×10^6 cells/mouse in 100 μL, passage 2-3) were re-suspended in serum-free DMEM and implanted in the upper right flank of 11-12 week old female Balb/c mice (Charles River Laboratories). Mice were randomized into four groups of 10 using a matched pair distribution method based on tumor size for CT26. Treatment was initiated 12 days post-inoculation with mean tumor volume at start of dosing of 125.85 mm^3. Vehicle or Compound 1 (40 mg/kg) was administered by oral gavage daily for 26 days and isotype control or a reverse chimera anti-PD-L1 cloned from literature reports (e.g., Deng, R. et al. MAbs (2016), the content of which is incorporated herein by reference in entirety) and placed into a mouse IgG1 framework (10 mg/kg) was administered every 5 days for a total of six doses. Investigators were not blinded to treatment groups. […] Mice were sacrificed on Day 13 and lung metastases were quantified (small ≤1 mm, medium >1 mm and ≤3 mm, large >3 mm). No large lung metastases were detected.

SMILES strings stand for the structures.

For the compound `N#Cc1cc(-c2ncnc(Nc3ccc(N4CCN(C5COC5)CC4)cc3)n2)ccc1OC1CCOCC1` [Compound 1, 5-(4-((4-(4-(oxetan-3-yl)piperazin-1-yl)phenyl)amino)-1,3,5-triazin-2-yl)-2-((tetrahydro-2H-pyran-4-yl)oxy)benzonitrile], in data set [1], the “secretion of IL-2 from Jurkat cells” value is recorded as “enhanced secretion”. Also, the “cytotoxic effects on CT26 cell line spheroids (viability)” value in data set [2] is “without cytotoxic effects”. Also, in the data set with CT26 allograft, the “survival, CT26 allograft, combination vs Cmpd1 or anti-PD-L1 alone” value was “longer survival” and the “tumour control, CT26 allograft, combination vs Cmpd1 or anti-PD-L1 alone” value is given as “greater tumour control”.
